The nature of the series: Viscosity measurement of vitamin E, MCT and binary blends. Format: physicochemical. The following applies: 23 °C. As to the method: Viscosity of vitamin E, MCT, and their binary mixtures was measured using an advanced rheometer from TA Instruments Ltd, New Castle, Del. model number AR 2000. A cone and plate geometry was used with a steel plate radius of 40 mm and a cone angle of 2°. The gap between the cone and plate geometry was set at 100 μm. Rheological measurements were made at 23° C. The rheometer was fitted with a Peltier temperature control system, which was monitored during the experiments. For each test, approximately 1 g of vitamin E, MCT, or their binary mixtures was placed between the plates. Preliminary studies were conducted to optimize instrument parameters. Once the system was optimized, a continuous ramp method was used. The shear stress was measured at varying shear rates from 1 to 100 s−1 for a period of 5 minutes. All rheological measurements were carried out in triplicates. Data were analyzed using rheology software namely TA Rheology Advantage software, Version 2.3.
The viscosity of the blends decreased from a high of 3700 mPa·s for vitamin E alone to a low of 27 mPa·s, which is the viscosity of pure MCT. […] Therefore, two levels of vitamin E loading in the emulsion were evaluated in this study representing a high viscosity system at a 70/30 ratio and a low viscosity system at a 30/70 ratio of vitamin E to MCT. […]

In general, viscosity refers to the resistance of a fluid to flow. Low readings indicate easy flow, high ones sluggish flow.

(±)-α-Tocopherol [vitamin E] came in with a viscosity of 3700 mPa·s.
